# Source: US9796700B2 (Celgene CAR LLC, priority 2013, dated 2017)
# Target: Erk1 (Homo sapiens (Human), UniProt P27361)
# Assay: Protein Mass Modification Assay (intact protein MALDI)
# Assay type: binding
# Procedure: Protein Mass Modification Assay
# Intact protein: Erk1 from Millipore (Cat. No. 14-439) was incubated for 60 min. at room temperature with a 10-fold excess of test compound to protein. 4 μL aliquots of the resulting mixture were diluted with 15 μL of 0.2% TFA prior to micro C4 ZipTipping directly onto the MALDI target using sinapinic acid as the desorption matrix (10 mg/ml in 0.1% TFA:Acetonitrile 50:50, v/v). The centroid mass of the target protein in the control sample was compared with the centroid mass of the target protein incubated with compound. A shift in the centroid mass of the treated protein compared to the untreated protein was divided by the molecular weight of the compound. This number corresponds to the percentage of modified protein after one hour incubation. Results from this assay are reported in Table A under the column “ERK1 Mass Mod (%).”
# Sequence of Erk1 (P27361 whole entry, looked up): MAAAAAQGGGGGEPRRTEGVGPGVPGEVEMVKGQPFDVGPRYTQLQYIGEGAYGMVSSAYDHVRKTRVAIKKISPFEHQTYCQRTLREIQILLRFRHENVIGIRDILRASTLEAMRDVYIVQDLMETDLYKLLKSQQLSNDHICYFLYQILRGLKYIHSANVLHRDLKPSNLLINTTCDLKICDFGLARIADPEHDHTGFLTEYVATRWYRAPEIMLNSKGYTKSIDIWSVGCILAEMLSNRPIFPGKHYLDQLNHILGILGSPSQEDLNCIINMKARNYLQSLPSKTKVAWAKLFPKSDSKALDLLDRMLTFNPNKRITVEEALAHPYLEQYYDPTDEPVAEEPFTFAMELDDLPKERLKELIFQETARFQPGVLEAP
row,SMILES,ERK1 Mass Mod (%)
1,"C=CC(=O)Nc1ccccc1Nc1nc(N[C@H]2CCCN(C(=O)[C@H](O)CO)C2)ncc1C(F)(F)F [Compound I-51, N-(2-((2-(((S)-1-((R)-2,3-Dihydroxypropanoyl)piperidin-3-yl)amino)-5-(trifluoromethyl)pyrimidin-4-yl)amino)phenyl)acrylamide]",E (provided a mass modification of ≧70%)
2,"C=CC(=O)Nc1ccccc1Nc1nc(Nc2cc(NC(=O)CCCC(=O)NCCCOCCOCCOCCCNC(=O)CCCC[C@@H]3SC[C@@H]4NC(=O)N[C@@H]43)cc(C(N)=O)c2)ncc1Cl [Compound I-304, N^1-(3-((4-((2-acrylamidophenyl)amino)-5-chloropyrimidin-2-yl)amino)-5-carbamoylphenyl)-N-(15-oxo-19-((3aS,4S,6aR)-2-oxohexahydro-1H-thieno[3,4-d]imidazol-4-yl)-4,7,10-trioxa-14-azanonadecyl)glutaramide]",G (proived a mass modification ≦30%)
3,"C=CC(=O)Nc1ccccc1Nc1nc(NC(C)(C)C)ncc1C(F)(F)F [Compound I-82, N-(2-((2-(tert-Butylamino)-5-(trifluoromethyl)pyrimidin-4-yl)amino)phenyl)acrylamide]",E (provided a mass modification of ≧70%)
4,"C=CC(=O)N[C@@H]1CCCC[C@H]1Nc1nc(Nc2cc(C(=O)NOC)ccc2C)ncc1C(N)=O (racemic) [Compound I-256, Rac-trans-4-((2-acrylamidocyclohexyl)amino)-2-((5-(methoxycarbamoyl)-2-methylphenyl)amino)pyrimidine-5-carboxamide]",G (proived a mass modification ≦30%)
5,"C=CC(=O)Nc1ccccc1Nc1nc(Nc2ccc(N3CCOCC3)cc2OC)ncc1C(N)=O [Compound I-249, 4-((2-acrylamidophenyl)amino)-2-((2-methoxy-4-morpholinophenyl)amino)pyrimidine-5-carboxamide]",F (provided a mass modification of 31-69%)
6,"C=CC(=O)Nc1ccccc1Nc1nc(Nc2ccc(N3CCC[C@H]3C(N)=O)cc2C#N)ncc1Cl [Compound I-177, (S)-1-(4-((4-((2-acrylamidophenyl)amino)-5-chloropyrimidin-2-yl)amino)-3-cyanophenyl)pyrrolidine-2-carboxamide]",E (provided a mass modification of ≧70%)
7,"C=CC(=O)Nc1ccccc1Nc1nc(Nc2ccc(N3CCOCC3)cc2OC)ncc1C(=O)NC [Compound I-250, 4-(2-acrylamidophenylamino)-2-(2-methoxy-4-morpholinophenylamino)-N-methylpyrimidine-5-carboxamide]",G (proived a mass modification ≦30%)
8,"C=CC(=O)Nc1cc(C)ccc1Nc1nc(Nc2ncc(C(F)(F)F)c(OC)n2)ncc1C(F)(F)F [Compound I-354, N-(2-((2-((4-methoxy-5-(trifluoromethyl)pyrimidin-2-yl)amino)-5-(trifluoromethyl)pyrimidin-4-yl)amino)-5-methylphenyl)acrylamide]",E (provided a mass modification of ≧70%)
9,"C=CC(=O)N[C@@H]1CCCC[C@H]1Oc1nc(Nc2cc(C(N)=O)ccc2C)ncc1Cl (racemic) [Compound I-270, Rac-trans-3-((4-((2-acrylamidocyclohexyl)oxy)-5-chloropyrimidin-2-yl)amino)-4-methylbenzamide]",G (proived a mass modification ≦30%)
10,"C=CC(=O)Nc1cc(C)ccc1Nc1nc(Nc2cc(NCCOC)nc(OC)c2)ncc1C(F)(F)F [Compound I-294, N-(2-((2-((2-methoxy-6-((2-methoxyethyl)amino)pyridin-4-yl)amino)-5-(trifluoromethyl)pyrimidin-4-yl)amino)-5-methylphenyl)acrylamide]",E (key: E: provided a mass modification of ≧70%; F: provided a mass modification of 31-69%; G: proived a mass modification ≦30%)
11,"C=CC(=O)Nc1ccccc1Nc1nc(N[C@H]2CCCN(C(C)=O)C2)ncc1Cl [Compound I-115, (S)—N-(2-((2-((1-acetylpiperidin-3-yl)amino)-5-chloropyrimidin-4-yl)amino)phenyl) acrylamide]",E (provided a mass modification of ≧70%)
12,"C=CC(=O)Nc1cc(C)ccc1Nc1nc(Nc2cc(OC)nc(N3CCOCC3)c2)ncc1C(F)(F)F [Compound I-94, N-(2-((2-((2-Methoxy-6-morpholinopyridin-4-yl)amino)-5-(trifluoromethyl)pyrimidin-4-yl)amino)-5-methylphenyl)acrylamide]",F (provided a mass modification of 31-69%)
13,"C=CC(=O)Nc1ccccc1Nc1nc(N[C@H]2CCN(C(=O)OC)C2)ncc1C(F)(F)F [Compound I-59, (S)-methyl 3-((4-((2-Acrylamidophenyl)amino)-5-(trifluoromethyl)pyrimidin-2-yl)amino)pyrrolidine-1-carboxylate]",E (provided a mass modification of ≧70%)
14,"C=CC(=O)Nc1c(Nc2nc(Nc3cc(OC)ncc3C)ncc2C(F)(F)F)ccc(C)c1F [Compound I-367, N-(2-fluoro-6-((2-((2-methoxy-5-methylpyridin-4-yl)amino)-5-(trifluoromethyl)pyrimidin-4-yl)amino)-3-methylphenyl)acrylamide]",E (provided a mass modification of ≧70%)
15,"C=CC(=O)Nc1cc(C(F)(F)F)ccc1Nc1nc(Nc2cc(OC)ncc2C)ncc1C(F)(F)F [Compound I-323, N-(2-((2-((2-methoxy-5-methylpyridin-4-yl)amino)-5-(trifluoromethyl)pyrimidin-4-yl)amino)-5-(trifluoromethyl)phenyl)acrylamide]",E (provided a mass modification of ≧70%)
16,"C=CC(=O)N(C)c1ccccc1Nc1nc(N[C@@H]2CCC[C@H](C(N)=O)C2)ncc1Cl (racemic) [Compound I-105, Rac-cis-3-((5-chloro-4-((2-(N-methylacrylamido)phenyl)amino)pyrimidin-2-yl)amino)cyclohexanecarboxamide]",F (provided a mass modification of 31-69%)
17,"C=CC(=O)Nc1ccccc1Nc1nc(N[C@H]2CCN(S(C)(=O)=O)C2)ncc1C(F)(F)F [Compound I-58, (S)—N-(2-((2-((1-(Methylsulfonyl)pyrrolidin-3-yl)amino)-5-(trifluoromethyl)pyrimidin-4-yl)amino)phenyl)acrylamide]",E (provided a mass modification of ≧70%)
18,"C=CC(=O)Nc1ccccc1Nc1nc(Nc2ccc(NC(=O)CCCC(=O)NCCCOCCOCCOCCCNC(=O)CCCC[C@H]3SC[C@H]4NC(=O)N[C@H]43)cc2OC)ncc1Cl [Compound I-301, N^1-(4-((4-((2-acrylamidophenyl)amino)-5-chloropyrimidin-2-yl)amino)-3-methoxyphenyl)-N^5-(15-oxo-19-((3aR,4R,6aS)-2-oxohexahydro-1H-thieno[3,4-d]imidazol-4-yl)-4,7,10-trioxa-14-azanonadecyl)glutaramide]",E (provided a mass modification of ≧70%)
19,"C=CC(=O)Nc1ccccc1Nc1nc(Nc2cc(C(=O)NOCCO)ccc2C#N)ncc1C(F)(F)F [Compound I-75, 3-((4-((2-Acrylamidophenyl)amino)-5-(trifluoromethyl)pyrimidin-2-yl)amino)-4-cyano-N-(2-hydroxyethoxy)benzamide]",E (provided a mass modification of ≧70%)
20,C=CC(=O)Nc1ccccc1Nc1nc(Nc2ccc(N(CCCNC(=O)OC(C)(C)C)C(C)=O)cc2OC)ncc1Cl [Compound I-173],E (provided a mass modification of ≧70%)
21,"C=CC(=O)Nc1ccccc1Nc1nc(Nc2cc(C(N)=O)c(OCCCNC(=O)CCCC(=O)NCCCOCCOCCOCCCNC(=O)CCCC[C@@H]3SC[C@@H]4NC(=O)N[C@@H]43)cc2C)ncc1Cl [Compound I-299, N^1-(3-(4-((4-((2-acrylamidophenyl)amino)-5-chloropyrimidin-2-yl)amino)-2-carbamoyl-5-methylphenoxy)propyl)-N^5-(15-oxo-19-((3aS,4S,6aR)-2-oxohexahydro-1H-thieno[3,4-d]imidazol-4-yl)-4,7,10-trioxa-14-azanonadecyl)glutaramide]",E (provided a mass modification of ≧70%)
22,"C=CC(=O)Nc1cc(C)ccc1Nc1nc(Nc2cc(OC)nc(N3CCN(C)CC3)c2)ncc1C(F)(F)F [Compound I-325, N-(2-((2-((2-methoxy-6-(4-methylpiperazin-1-yl)pyridin-4-yl)amino)-5-(trifluoromethyl)pyrimidin-4-yl)amino)-5-methylphenyl)acrylamide]",E (provided a mass modification of ≧70%)
23,"C=CC(=O)Nc1cc(C)ccc1Nc1nc(Nc2cc(P(C)(C)=O)ncc2C)ncc1C(F)(F)F [Compound I-343, N-(2-((2-((2-(dimethylphosphoryl)-5-methylpyridin-4-yl)amino)-5-(trifluoromethyl)pyrimidin-4-yl)amino)-5-methylphenyl)acrylamide]",F (provided a mass modification of 31-69%)
24,"C=CC(=O)Nc1ccccc1Nc1nc(Nc2cc(Cl)nc(OC)c2)ncc1Cl [Compound I-246, N-(2-((5-chloro-2-((2-chloro-6-methoxypyridin-4-yl)amino)pyrimidin-4-yl)amino)phenyl)acrylamide]",E (provided a mass modification of ≧70%)
25,"C=CC(=O)Nc1cc(C)ccc1Nc1nc(Nc2cc(OC)nc(N3CCN(CC)CC3)c2)ncc1C(F)(F)F [Compound I-89, N-(2-((2-((2-(4-Ethylpiperazin-1-yl)-6-methoxypyridin-4-yl)amino)-5-(trifluoromethyl)pyrimidin-4-yl)amino)-5-methylphenyl)acrylamide]",F (provided a mass modification of 31-69%)
